Results taken from the NIST ThermoML archive (doi:10.1016/j.jct.2012.12.010).
Numbers after ± are expanded uncertainties.

Assays:
[1] = mn = molality of the nth substance listed, in mol/kg; conditions: 101 kPa, Liquid, m2 = 0; for speed of sound: Linear variable-path acoustic interferometer; for mass density: Pycnometric method
[2] = 101 kPa, Liquid; for speed of sound: Linear variable-path acoustic interferometer; for mass density: Pycnometric method

| speed of sound ([1]; 275.15 K) | mass density ([1]; 275.15 K) | speed of sound ([1]; 279.15 K) | mass density ([1]; 279.15 K) | speed of sound ([1]; 283.15 K) | mass density ([1]; 283.15 K) | speed of sound ([2]; 275.15 K) | mass density ([2]; 275.15 K) | speed of sound ([2]; 279.15 K) | mass density ([2]; 279.15 K) | speed of sound ([2]; 283.15 K) | mass density ([2]; 283.15 K) | Structure (SMILES) |
| --- | --- | --- | --- | --- | --- | --- | --- | --- | --- | --- | --- | --- |
| 1412.2 ± 2.8 m/s | 999.94 ± 0.47 kg/m3 | 1430.6 ± 2.8 m/s | 999.94 ± 0.47 kg/m3 | 1447.3 ± 2.8 m/s | 999.7 ± 0.46 kg/m3 | – | – | – | – | – | – | O [water] + N=C(N)NCCC[C@H](N)C(=O)O |
| 1412.2 ± 2.8 m/s | 999.94 ± 0.47 kg/m3 | 1430.6 ± 2.8 m/s | 999.94 ± 0.47 kg/m3 | 1447.3 ± 2.8 m/s | 999.7 ± 0.46 kg/m3 | – | – | – | – | – | – | O [water] + CC(C)[C@H](N)C(=O)O |
| – | – | – | – | – | – | 1412.2 ± 2.8 m/s | 999.94 ± 0.47 kg/m3 | 1430.6 ± 2.8 m/s | 999.94 ± 0.47 kg/m3 | 1447.3 ± 2.8 m/s | 999.7 ± 0.46 kg/m3 | O [water] |
| 1412.2 ± 2.8 m/s | 999.94 ± 0.47 kg/m3 | 1430.6 ± 2.8 m/s | 999.94 ± 0.47 kg/m3 | 1447.3 ± 2.8 m/s | 999.7 ± 0.46 kg/m3 | – | – | – | – | – | – | O [water] + C[C@@H](O)[C@H](N)C(=O)O |
